Laboratory results as given in EP3428647A1, “EXPRESSION SIGNATURE FOR GLIOMA DIAGNOSIS AND/OR PROGNOSIS IN A SUBJECT” (Consejo Superior de Investigaciones Científicas (CSIC), priority 2017, dated 2019).
Like-named read-outs stand apart in the source and are kept apart here.

How the values were obtained:
SF268 = assay: Cytotoxic assay MTT, monolayer culture; assay type: cell-based, human; settings: for IC50: Homo sapiens, monolayer
Method: (§1) The human Glioblastoma cell line SF268 and U251MG were cultured in RPMI 1640 medium (SIGMA) supplemented with 10% Fetal Bovine Serum (FBS) at 37°C under 5% CO2 atmosphere. For DNA transfection, SF268 and U251MG were transfected with Mirus TransIT-X2 Dynamic Delivery System (Mirus MIR6000) in exponential phase with 2.5 µg of a small hairping RNA (shRNA) against NAMPT (QIAGEN SureSilencing shRNA insert sequence: 5'-[…]-3' (SEQ ID NO: 17)), 2.5 µg of DNA carrying an hygromycin empty vector (QIAGEN noncoding sequence: 5'-[…]-3' (SEQ ID NO: 18)) and 2.5 µg of DNA of pCMV-hygromycin carrying a cDNA of NAMPT gene (SinoBiological HG10990-M).
5x10^3 SF268 cells were seeded then treated with FK866 24 hours later. After 96 hours, cell viability was measured with MTT.
(§2) For the assay, 5x10^3 cells were seeded and then treated with the different compound at 11 different concentrations at 1/3 dilutions after 24 hours. Then, 96 hours later, cell viability was measured via MTT assay and validated independently by crystal violet staining. IC50 was calculated as the concentration allowing 50% survival compared to day 0 controls. Combination experiments were performed testing 11 different concentrations at 1/3 dilutions of FK866 and maintaining same suboptimal concentration of TMZ (as indicated) in all tested points.

U251MG = assay: Cytotoxic assay MTT, monolayer culture; assay type: cell-based; settings: Homo sapiens
Method: as §1, §2

SF268 tumorspheres = assay: Cytotoxic assay, tumorsphere specific assay; assay type: cell-based, human; settings: for IC50: Homo sapiens
Method: (§3) A total of 5x10^3 cells/mL/well were seeded in Ultra-low Attachment Plates containing MammoCultTM Basal Medium (Human) (Stem Cell Tech) supplied with 0.48 mg/mL hydrocortisone, 0.2% heparin solution and 10% MammoCult™ Proliferation Supplement (Human). After 4 days, primary tumorspheres were measured, both in size and in number, using an inverted microscope (Olympus CKX41).
as §2

U251MG tumorspheres = assay: Cytotoxic assay, tumorsphere specific assay; assay type: cell-based; settings: Homo sapiens
Method: as §3, §2

[1] = system: SF268 NAMPT-underexpressing cells; assay: Proliferation assay (growth curve), rescue of NAMPT-underexpressing cells; assay type: cell-based, human; settings: 1 mM NMN; compared to sh
Method: A time course curve of parental (empty vector transfected cells) and NAMPT both cDNA and shRNA-expressing cells was generated by seeding […] in 2.2 cm bottom-well diameter dishes in triplicate samples. After 24 hours, medium was changed (day 0) and the indicated culture media added. Every 24 hours, cells were fixed and stained with crystal violet 1% (SIGMA C6158-50G). After extensive washing, crystal violet was solubilized in 20% acetic acid (Sigma) and quantified at 595 nm absorbance as a relative measure of cell number (BIORAD iMarkTM Microplate Reader). Values are expressed as the percentage of cell growth of cells growing in the presence of 10% FBS. Zero percent refers to the number of cells at day 0.
(§4) NAMPT catalyzes the conversion of nicotinamide to nicotinamide mononucleotide (NMN), which is the rate-limiting step in the NAD salvage pathway. If the enzymatic activity of NAMPT is directly responsible for these phenotypes, the phenotype should be recovered by directly adding the product of the enzyme to cells. Therefore, we repeated the previous surrogate experiments and added saturating concentrations of NMN to cells expressing low levels of NAMPT (sh supplemented with NMN, sh+NMN). In these experiments, we rescued the parental phenotypes by supplying the cells with the NAMPT metabolic product NMN (Figure 6A-D left). […]

[2] = system: SF268 NAMPT-underexpressing cells; assay: Colony formation (clonogenicity) assay, rescue; assay type: cell-based, human; settings: 1 mM NMN; compared to sh
Method: (§5) 10^3 cells were seeded in 10 cm plates, every condition in triplicate. The medium was replaced every 3 days and after 12 days the colonies were fixed and stained with a Crystal violet assay. After extensive-washing, colonies were counted. Values are expressed in number of observed colonies among 10^3 seeded cells. To analyze the clonal heterogeneity, 10^2 random colonies were classified in triplicate depending on its phenotype: Holoclone, Meroclone and Paraclone (Li H. et al 2008.; Garcia-Heredia JM, Lucena-Cacace A, Verdugo-Sivianes EM, Perez M, Carnero A. The cargo protein MAP17 (PDZK1IP1) regulates the cancer stem cell pool activating the Notch pathway by abducting NUMB. Clin Cancer Res. 2017 Feb 2. doi: 10.1158/1078-0432.CCR-16-2358. [
as §4

[3] = system: NAMPT- underexpressing cells; assay: Clonal heterogeneity analysis (clone phenotypes), rescue; assay type: cell-based, human; settings: 1 mM NMN; both cell lines
Method: as §5, §4

[4] = system: SF268 and U251MG NAMPT-underexpressing cells; assay: FACS analysis of CD133 and CD44, rescue; assay type: cell-based, human; settings: 1 mM NMN; both cell lines
Method: Single cells were individually seeded through cell sorting (BD FACS Jazz) in 96 well Ultra-low attachment plates containing MammoCultTM Basal medium (Human) (Stem Cell Tech) supplied with hydrocortisone 0.48 mg/mL, Heparin solution 0.2% and 10% MammoCult™ Proliferation Supplement (Human). After 21 days, primary tumorspheres formed were measured both in size and number using inverted microscope (Olympus CKX41). Fluorescence-activated cell sorting (FAC). For FACS staining, live cells were incubated with CD133 (AC133-PE, Miltenyi) and CD44 (PE, Miltenyi) for 30 minutes at dilutions specified in the manufacturer's protocols.
NAMPT catalyzes the conversion of nicotinamide to nicotinamide mononucleotide (NMN), which is the rate-limiting step in the NAD salvage pathway. If the enzymatic activity of NAMPT is directly responsible for these phenotypes, the phenotype should be recovered by directly adding the product of the enzyme to cells. Therefore, we repeated the previous surrogate experiments and added saturating concentrations of NMN to cells expressing low levels of NAMPT (sh supplemented with NMN, sh+NMN). In these experiments, we rescued the parental phenotypes by supplying the cells with the NAMPT metabolic product NMN (Figure 6A-D left). […] Similar results were found using a second shRNA against NAMPT (Figure 4A, B). […]

[5] = system: SF268 NAMPT-underexpressing cells; assay: Sphere-forming assay, rescue; assay type: cell-based, human; settings: 1 mM NMN; compared to sh
Method: as §3
NAMPT catalyzes the conversion of nicotinamide to nicotinamide mononucleotide (NMN), which is the rate-limiting step in the NAD salvage pathway. If the enzymatic activity of NAMPT is directly responsible for these phenotypes, the phenotype should be recovered by directly adding the product of the enzyme to cells. Therefore, we repeated the previous surrogate experiments and added saturating concentrations of NMN to cells expressing low levels of NAMPT (sh supplemented with NMN, sh+NMN). In these experiments, we rescued the parental phenotypes by supplying the cells with the NAMPT metabolic product NMN (Figure 6A-D left). […] Similar results were found using a second shRNA against NAMPT (Figure 4A, B).
Similar results were found using a second shRNA against NAMPT (Figure 4A, B).

[6] = SF-268, SF268 NAMPT (overexpressing), combined with constant 100 µM TMZ, read-out: IC50 FK866 + 100 µM TMZ (nM ± SD)
[7] = SF-268, SF268 sh (NAMPT shRNA), combined with constant 100 µM TMZ, read-out: IC50 FK866 + 100 µM TMZ (nM ± SD)
[8] = SF-268, SF268 v (vector only), combined with constant 100 µM TMZ, read-out: IC50 FK866 + 100 µM TMZ (nM ± SD)
[9] = U-251, U251MG NAMPT (overexpressing), combined with constant 150 µM TMZ, read-out: IC50 FK866 + 150 µM TMZ (nM ± SD)
[10] = U-251, U251MG sh (NAMPT shRNA), combined with constant 150 µM TMZ, read-out: IC50 FK866 + 150 µM TMZ (nM ± SD)
[11] = U-251, U251MG v (vector only), combined with constant 150 µM TMZ, read-out: IC50 FK866 + 150 µM TMZ (nM ± SD)

O=C(/C=C/c1cccnc1)NCCCCC1CCN(C(=O)c2ccccc2)CC1 [FK866]
IC50 (SF268; SF-268, 96 h, SF268 NAMPT (overexpressing), monotherapy, 96 hours, read-out: IC50 FK866 (nM ± SD)): 2.8 ± 0.3 nM | IC50 (SF268; SF-268, 96 h, SF268 sh (NAMPT shRNA), monotherapy, 96 hours, read-out: IC50 FK866 (nM ± SD)): 8.3 ± 0.8 nM | IC50 (SF268; SF-268, 96 h, SF268 v (vector only), monotherapy, 96 hours, read-out: IC50 FK866 (nM ± SD)): 5.2 ± 0.9 nM | IC50 (SF268; [6]): 0.2 ± 0.4 nM | IC50 (SF268; [7]): 6.1 ± 0.2 nM | IC50 (SF268; [8]): 2.4 ± 0.4 nM | effect of combined treatment with TMZ on the values (SF268; both in mass cultures and tumorspheres): slightly sensitized | sensitivity of NAMPT-overexpressing cells in mass cultures (SF268; compared with parental cells and NAMPT underexpressing cells): more sensitive | IC50 (U251MG; U-251, 96 h, U251MG NAMPT (overexpressing), monotherapy, 96 hours, read-out: IC50 FK866 (nM ± SD)): 15.3 ± 1.2 nM | IC50 (U251MG; U-251, 96 h, U251MG sh (NAMPT shRNA), monotherapy, 96 hours, read-out: IC50 FK866 (nM ± SD)): 22.3 ± 0.6 nM | IC50 (U251MG; U-251, 96 h, U251MG v (vector only), monotherapy, 96 hours, read-out: IC50 FK866 (nM ± SD)): 20.7 ± 0.7 nM | IC50 (U251MG; [9]): 5.1 ± 1.4 nM | IC50 (U251MG; [10]): 19.4 ± 0.7 nM | IC50 (U251MG; [11]): 14.3 ± 1.3 nM | induced toxicity in tumorspheres (CIC population) (SF268 tumorspheres): effective | IC50 (SF268 tumorspheres; [6]): 0.5 ± 1.1 nM | IC50 (SF268 tumorspheres; SF-268, SF268 NAMPT (overexpressing), monotherapy, read-out: IC50 FK866 (nM ± SD)): 2.5 ± 0.4 nM | IC50 (SF268 tumorspheres; [7]): 7.3 ± 0.7 nM | IC50 (SF268 tumorspheres; SF-268, SF268 sh (NAMPT shRNA), monotherapy, read-out: IC50 FK866 (nM ± SD)): 9.5 ± 0.9 nM | IC50 (SF268 tumorspheres; [8]): 4.2 ± 0.3 nM | IC50 (SF268 tumorspheres; SF-268, SF268 v (vector only), monotherapy, read-out: IC50 FK866 (nM ± SD)): 6.1 ± 1.2 nM | IC50 (U251MG tumorspheres; [9]): 7.2 ± 0.7 nM | IC50 (U251MG tumorspheres; U-251, U251MG NAMPT (overexpressing), monotherapy, read-out: IC50 FK866 (nM ± SD)): 11.3 ± 1.3 nM | IC50 (U251MG tumorspheres; [10]): 25.4 ± 1.8 nM | IC50 (U251MG tumorspheres; U-251, U251MG sh (NAMPT shRNA), monotherapy, read-out: IC50 FK866 (nM ± SD)): 27.3 ± 1.4 nM | IC50 (U251MG tumorspheres; [11]): 17.1 ± 0.9 nM | IC50 (U251MG tumorspheres; U-251, U251MG v (vector only), monotherapy, read-out: IC50 FK866 (nM ± SD)): 18.6 ± 1.9 nM

NC(=O)c1ccc[n+](C2OC(COP(=O)([O-])O)C(O)C2O)c1 (stereo not drawn) [NMN, nicotinamide mononucleotide]
growth curve, vector-proliferation ratio [1]: can rescue the vector-proliferation ratio | clonogenicity [2]: can rescue the clonogenetic ability of the vector | number of holoclones [3]: can rescue the number of holoclones in the vector | levels of CD44 expression [4]: can rescue the levels of CD44 expression in the vector | levels of CD133 expression [4]: can rescue and surpass the levels of CD133 expression in the vector | tumorsphere area / number of tumorspheres [5]: can rescue the number of tumorspheres generated in the vector

Cn1nnc2c(C(N)=O)ncn2c1=O [TMZ, Temozolomide]
IC50 (SF268; SF-268, 96 h, SF268 NAMPT (overexpressing), monotherapy, 96 hours, read-out: IC50 TMZ (µM ± SD)): 174000 ± 2100 nM | IC50 (SF268; SF-268, 96 h, SF268 sh (NAMPT shRNA), monotherapy, 96 hours, read-out: IC50 TMZ (µM ± SD)): 163000 ± 2200 nM | IC50 (SF268; SF-268, 96 h, SF268 v (vector only), monotherapy, 96 hours, read-out: IC50 TMZ (µM ± SD)): 165000 ± 1900 nM | IC50 (U251MG; U-251, 96 h, U251MG NAMPT (overexpressing), monotherapy, 96 hours, read-out: IC50 TMZ (µM ± SD)): 201000 ± 5300 nM | IC50 (U251MG; U-251, 96 h, U251MG sh (NAMPT shRNA), monotherapy, 96 hours, read-out: IC50 TMZ (µM ± SD)): 204000 ± 4800 nM | IC50 (U251MG; U-251, 96 h, U251MG v (vector only), monotherapy, 96 hours, read-out: IC50 TMZ (µM ± SD)): 194000 ± 3400 nM | IC50 (SF268 tumorspheres; SF-268, SF268 NAMPT (overexpressing), monotherapy, read-out: IC50 TMZ (µM ± SD)): 173000 ± 3200 nM | IC50 (SF268 tumorspheres; SF-268, SF268 sh (NAMPT shRNA), monotherapy, read-out: IC50 TMZ (µM ± SD)): 174000 ± 3600 nM | IC50 (SF268 tumorspheres; SF-268, SF268 v (vector only), monotherapy, read-out: IC50 TMZ (µM ± SD)): 170000 ± 2100 nM | IC50 (U251MG tumorspheres; U-251, U251MG NAMPT (overexpressing), monotherapy, read-out: IC50 TMZ (µM ± SD)): 222000 ± 4700 nM | IC50 (U251MG tumorspheres; U-251, U251MG sh (NAMPT shRNA), monotherapy, read-out: IC50 TMZ (µM ± SD)): 221000 ± 3200 nM | IC50 (U251MG tumorspheres; U-251, U251MG v (vector only), monotherapy, read-out: IC50 TMZ (µM ± SD)): 224500 ± 1700 nM
